Data: US11021463B2, “Therapeutic inhibitory compounds” (Attune Pharmaceuticals, Inc., priority 2013, dated 2021)

Biological target: human plasma kallikrein (Homo sapiens (Human), UniProt P03952)
Assay: In vitro enzyme inhibition of human plasma kallikrein (Pro-Phe-Arg-AMC cleavage)
Type: biochemical
Details: human Plasma Kallikrein (Abcam), Pro-Phe-Arg-AMC substrate, 37° C., pH 7.5; read-out: hPK IC50
Protocol: The ability of the compounds disclosed herein to inhibit human plasma kallikrein activity was quantified according to the procedures below.
A 10 mM solution of the test compound was made in DMSO. […] A control tube containing only DMSO is included. 16 μL of each compound test solution was combined with 384 μL of assay buffer (50 mM Tris-HCl pH 7.5, 150 mM NaCl, 0.01% Triton X-100) to yield a “4× test compound buffer stock”.
These solutions are hereby referred to as 4× hPK and 2×PFR-AMC, respectively.
50 μL was removed from this mixture and placed into duplicate wells on a Microfluor 1Black U-bottom microtiter plate (Thermo Scientific). This plate was incubated for 5 minutes at 37° C. To each well, 50 μL of pre-warmed 2×PFR-AMC was added to start the enzymatic reaction. Cleavage of PFR-AMC was monitored in a Biotek Synergy H4 reader set at 37° C. Readings are taken every 43 seconds for 1 hour. […] The IC50 is calculated using the Gen5 (Biotek Instruments).
The ability of the compounds in Table 3 to inhibit human plasma kallikrein activity was determined.

Sequence of human plasma kallikrein (P03952 391-638 limits assumed): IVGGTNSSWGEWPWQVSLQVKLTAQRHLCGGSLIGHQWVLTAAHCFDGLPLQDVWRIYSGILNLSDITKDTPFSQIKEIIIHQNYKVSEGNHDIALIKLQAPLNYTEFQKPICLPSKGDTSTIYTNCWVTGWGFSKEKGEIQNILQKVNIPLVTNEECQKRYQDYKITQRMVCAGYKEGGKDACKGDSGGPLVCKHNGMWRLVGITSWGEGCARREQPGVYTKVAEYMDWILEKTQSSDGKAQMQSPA
Sequence of human plasma kallikrein (P03952 20-390 partner limits assumed): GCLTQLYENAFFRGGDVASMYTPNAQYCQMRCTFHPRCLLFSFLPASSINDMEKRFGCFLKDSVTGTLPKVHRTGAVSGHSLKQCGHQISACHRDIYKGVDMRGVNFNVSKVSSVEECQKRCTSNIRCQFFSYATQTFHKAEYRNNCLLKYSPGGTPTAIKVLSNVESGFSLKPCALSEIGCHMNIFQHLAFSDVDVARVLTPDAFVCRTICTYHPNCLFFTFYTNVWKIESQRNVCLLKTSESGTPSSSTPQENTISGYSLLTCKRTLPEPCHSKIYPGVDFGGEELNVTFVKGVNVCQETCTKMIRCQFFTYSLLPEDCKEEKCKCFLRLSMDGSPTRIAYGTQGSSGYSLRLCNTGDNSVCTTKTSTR

## N-((6-amino-2,4-dimethylpyridin-3-yl)methyl)-2-((5-methyl-3a,7a-dihydro-1H-indazol-1-yl)methyl)isonicotinamide [Example 108]
  IC50: < 0.1 µM
